Measurements: US6472430B2, “Amino thioxomethyl amino oxyacetic acid derivatives” (priority 2000, dated 2002)

Assays:
Male Sprague-Dawley rats = test: Determination of serum HDL cholesterol in cholesterol/cholic acid-fed rats; assay type: in vivo, rat; settings: dose of 100 mg/kg mixed in diet, eight days, six rats per group, diet with 0.25% cholic acid and 1.0% cholesterol, serum HDL cholesterol by FPLC; for change in vivo at 100 mg/kg: Rattus norvegicus, feed or water, 192 h, read-out: HDL Cholesterol Level Increase (%)
Experimental: The ability of the compounds of this invention to increase blood serum HDL levels was evaluated by the following standard experimental procedure for determination of HDL cholesterol:
Male Sprague-Dawley rats weighing 200-225 g were housed two per cage and fed Purina Rodent Chow Special Mix 5001-S supplemented with 0.25% cholic acid and 1.0% cholesterol and water ad libitum for 8 days. Each test substance was administered to a group of six rats fed the same diet with the test diet mixed in as 0.005-0.1% of the total diet. Body weight and food consumption were recorded prior to diet administration and at termination. Typical doses of the test substances are 5-100 mg/kg/day.
At termination, blood was collected from anesthetized rats and the serum was separated by centrifugation. Total serum cholesterol was assayed using the Sigma Diagnostics enzymatic kit for the determination of cholesterol, Procedure No. 352, modified for use with ninety-six well microtiter plates. After reconstitution with water the reagent contained 300 U/l cholesterol oxidase, 100 U/l cholesterol esterase, 1000 U/l horseradish peroxidase, […] p-hydroxybenzenesulfonate in a pH 6.5 buffer. In the reaction cholesterol is oxidized to produce hydrogen peroxide which is used to form a quinoneimine dye. The concentration of dye formed is measured spectrophotometrically by absorbence at 490 nm after incubation at 25° C. for 30 minutes. The concentration of cholesterol was determined for each serum sample relative to a commercial standard from Sigma.
HDL cholesterol concentrations in serum were determined by separation of lipoprotein classes by fast protein liquid chromatography (FPLC) by a modification of the method of Kieft et al., J. Lipid Res., 32 (1991) 859-866. 25 ul of serum was injected onto Superose 12 and Superose 6 (Pharmacia), in series, with a column buffer of 0.05 M Tris (2-amino-2-hydroxymethyl-1,3-propanediol) and 0.15 M sodium chloride at a flow rate of 0.5 ml/min. The eluted sample was mixed on line with Boehringer-Mannheim cholesterol reagent pumped at 0.2 ml/min. The combined eluents were mixed and incubated on line through a knitted coil (Applied Biosciences) maintained at a temperature of 45° C. The eluent was monitored by measuring absorbance at 490 nm and gave a continuous absorbance signal proportional to the cholesterol concentration. The relative concentration of each lipoprotein class was calculated as the per cent of total absorbency. HDL cholesterol concentration, in serum, was calculated as the per cent of total cholesterol as determined by FPLC multiplied by the total serum cholesterol concentration.
Test compounds were administered at a dose of 100 mg/kg. Each test substance was administered to a group of six rats. The duration of treatment was eight days.

Compound | melting point [°C] | change in vivo at 100 mg/kg (Male Sprague-Dawley rats) [%] | HDL Cholesterol Level Increase (%) (Male Sprague-Dawley rats)
CCOC(=O)CON(C)C(=S)Nc1cc(Cl)ccc1C [Example 1, Ethyl [[[[(5-Chloro-2-methylphenyl)amino]thioxomethyl]methylamino]oxy]acetate] | 83 to 84 | 118 | 
CCOC(=O)CON(C)C(=S)Nc1cc(C)ccc1C [Example 5, Ethyl [[[[(2,5-dimethylphenyl)amino]thioxomethyl]methylamino]oxy]acetate] |  | 40 | 
CCOC(=O)CON(C)C(=S)NCC(C)C [Example 6, Ethyl [[[[(2-methylpropyl)amino]thioxomethyl]methylamino]oxy]acetate] |  | 17 | 
CCOC(=O)CON(C)C(=S)Nc1ccc(Oc2ccccc2)cc1 [Example 7, Ethyl [[[[(4-phenoxyphenyl)amino]thioxomethyl]methylamino]oxy]acetate] |  | 35 | 
CCOC(=O)CON(C(=S)Nc1cc(Cl)ccc1C)C(C)CC (stereo not drawn) [Example 10, Ethyl [[[[(5-Chloro-2-methylphenyl)amino]thioxomethyl](1-methylpropyl)amino]oxy]acetate] |  | 39 | 
Ethyl [[methyl[[(2-(1-methylethyl)phenyl]amino]thioxomethyl]methylamino]oxy]acetate [Example 4] |  |  | 104

Now from value to compound, other results behind:

melting point [°C] | Compound | change in vivo at 100 mg/kg (Male Sprague-Dawley rats) [%] | HDL Cholesterol Level Increase (%) (Male Sprague-Dawley rats)
104 to 106 | CCOC(=O)CON(C)C(=S)Nc1ccc(Cl)cc1C [Example 2, Ethyl [[[[(4-Chloro-2-methylphenyl)amino]thioxomethyl]methylamino]oxy]acetate] | 62 | 
69 to 71 | CCOC(=O)CON(C)C(=S)Nc1ccc2c(c1)CCC2 [Example 3, Ethyl [[[[(2,3-dihydro-1H-inden-5-yl)amino]thioxomethyl]methylamino]oxy]acetate] | 146 | 
69 to 71 | CCOC(=O)CON(CC)C(=S)Nc1ccc(Cl)cc1C [Example 8, Ethyl [[[[(4-Chloro-2-methylphenyl)amino]thioxomethyl]ethylamino]oxy]acetate] | 90 | 
83 to 85 | CCOC(=O)CON(C(=S)Nc1cc(Cl)ccc1C)C(C)C [Example 9, Ethyl [[[[(5-Chloro-2-methylphenyl)amino]thioxomethyl](1-methylethyl)amino]oxy]acetate] | 46 | 
